For 24 compounds, EC50 results are on record in patent EP4782448A1, “SUBSTITUTED PYRIDOTRIAZOLE COMPOUND, AND PREPARATION METHOD THEREFOR AND USE THEREOF” (Origiant Pharmaceutical Co., Ltd., priority 2023, dated 2025).

Where only a bound is given, the exact number is not on record here.

For the assay, the system named is HT-29 cells. Kind of assay: In vitro assay for protection of HT-29 cells from necroptosis (TNFα/Smac mimetic/Z-VAD-FMK induction, CCK8 readout). The assay is classed as cell-based. Particulars: TNFα/Smac mimetic/Z-VAD-FMK for 24 h; inhibition of necroptosis; read-out: HT-29 (EC50).

As usually defined, the EC50 is the midpoint of the concentration-response curve. `C[C@H](NC(=O)c1cn(C)c2ccc(-c3ccn4nc(NC(=O)CN5CCOCC5)nc4c3)cc12)C(C)(C)C` [Compound 90]: the EC50 lay within 1000 to 10000 nM.

In the case of `C[C@H](NC(=O)c1cn(C)c2ccc(-c3ccn4nc(NC(=O)c5cnn(C)c5)nc4c3)cc12)C(C)(C)C` [Compound 91], the EC50 lay in the range of 1000 to 10000 nM. The same measure for `C[C@H](NC(=O)c1cn(C)c2ccc(-c3ccn4nc(NC(=O)C5CC5F)nc4c3)cc12)C(C)(C)C` (stereo partly drawn) [Compound 92]: 100 to 1000 nM; for `C[C@H](NC(=O)c1cn(C)c2ccc(-c3ccn4nc(NC(=O)C5CC5)nc4c3)cc12)C(C)(C)C` [Compound 93]: 100 to 1000 nM. With `Cn1cc(C(=O)N[C@@H](CF)c2ccc(F)cc2)c2cc(-c3ccn4nc(NC(=O)CCl)nc4c3)ccc21` [Compound 94], the EC50 was less than 1 nM. For `CN1CCN(C(=O)Nc2nc3cc(-c4ccc5c(c4)c(C(=O)N[C@@H](CF)c4ccc(F)cc4)cn5C)ccn3n2)CC1` [Compound 95] the value was less than 1 nM. The same measure for `Cn1cc(C(=O)N[C@@H](CF)c2ccc(F)cc2)c2cc(-c3ccn4nc(NC(=O)CN5CCCCC5)nc4c3)ccc21` [Compound 96]: less than 1 nM; for `COCC(=O)Nc1nc2cc(-c3ccc4c(c3)c(C(=O)N[C@@H](CF)c3ccc(F)cc3)cn4C)ccn2n1` [Compound 97]: less than 1 nM.

Take `CO[C@@H](C)C(=O)Nc1nc2cc(-c3ccc4c(c3)c(C(=O)N[C@@H](CF)c3ccc(F)cc3)cn4C)ccn2n1` [Compound 98]: the EC50 was less than 1 nM.

For the compound `CC(C)Nc1nc2cc(-c3ccc4c(c3)c(C(=O)N[C@@H](CF)c3ccc(F)cc3)cn4C)ccn2n1` [Compound 99], the EC50 is less than 1 nM.

On to `CN1CC[C@@H](C(=O)Nc2nc3cc(-c4ccc5c(c4)c(C(=O)N[C@@H](CF)c4ccc(F)cc4)cn5C)ccn3n2)C1` [Compound 100], for which the EC50 was less than 1 nM. Take `CN(C)CC(=O)Nc1nc2cc(-c3ccc4c(c3)c(C(=O)N[C@@H](CF)c3ccc(F)cc3)cn4C)ccn2n1` [Compound 101]: the EC50 was less than 1 nM. The same measure for `Cn1cc(C(=O)N[C@@H](CF)c2ccc(F)cc2)c2cc(-c3ccn4nc(NC(=O)C#N)nc4c3)ccc21` [Compound 102]: less than 1 nM; for `Cn1cc(C(=O)N[C@@H](CF)c2ccc(F)cc2)c2cc(-c3ccn4nc(NC(=O)N5CCOCC5)nc4c3)ccc21` [Compound 103]: less than 1 nM; for `Cn1cc(C(=O)N[C@@H](CF)c2ccc(F)cc2)c2cc(-c3ccn4nc(NC(=O)[C@H]5CCCO5)nc4c3)ccc21` [Compound 104]: 1000 to 10000 nM. For `Cn1cc(C(=O)N[C@@H](CF)c2ccc(F)cc2)c2cc(-c3ccn4nc(NC(=O)C5(C)CCC5)nc4c3)ccc21` [Compound 105] the value was 10 to 100 nM; for `C[C@H](NC(=O)c1cn(C)c2ccc(-c3ccn4nc(NC5CCOC5)nc4c3)cc12)c1ccc(F)cc1` (stereo partly drawn) [Compound 107], less than 1 nM. For `Cn1cc(C(=O)N[C@@H](CF)c2ccc(F)cc2)c2cc(-c3ccn4nc(NCC5CC5)nc4c3)ccc21` [Compound 108] the value was less than 1 nM; for `Cn1cc(C(=O)N[C@@H](CF)c2ccc(F)cc2)c2cc(-c3ccn4nc(NC(=O)C5CCOC5)nc4c3)ccc21` (stereo partly drawn) [Compound 109], 1 to 10 nM. On to `Cn1cc(C(=O)N[C@@H](CF)c2ccc(F)cc2)c2cc(-c3ccn4nc(NC(=O)C5CC5(F)F)nc4c3)ccc21` (stereo partly drawn) [Compound 110], for which the EC50 is less than 1 nM.

On to `Cn1cc(C(=O)Nc2nc3cc(-c4ccc5c(c4)c(C(=O)N[C@@H](CF)c4ccc(F)cc4)cn5C)ccn3n2)cn1` [Compound 111], for which the EC50 lay in the range of 1 to 10 nM. The same measure for `COC(C)C(=O)Nc1nc2cc(-c3ccc4c(c3)c(C(=O)N[C@@H](CF)c3ccc(F)cc3)cn4C)ccn2n1` (stereo partly drawn) [Compound 112]: less than 1 nM; for `Cn1cc(C(=O)N[C@@H](CF)c2ccc(F)cc2)c2cc(-c3ccn4nc(NC(=O)C5CC5F)nc4c3)ccc21` (stereo partly drawn) [Compound 113]: 1 to 10 nM; for `Cn1cc(C(=O)N[C@@H](CF)c2ccc(F)cc2)c2cc(-c3ccn4nc(NC(=O)C5CC5)nc4c3)ccc21` [Compound 114]: less than 1 nM.
